Test results taken from US5776944A, “7-(4-aminomethyl-3-methyloxyiminopyrroplidin-1-yl)-1-cyclopropyl-6-flu oro-4-oxo-1,4-dihydro-1,8-naphthyridine-3-carboxylic acid and the process for the preparation thereof” (LG Chemical Ltd., priority 1994, dated 1998).
Values after ≈ are worked out from the molar mass of the structure shown.

Columns and labels:
[1] = Moisture content according to hydration number; format: physicochemical; details: actual moisture content, methanesulfonate hydrates
Experimental: The moisture content of the hydrate varies with the hydration number (n) of the hydrated molecule. Since the molecular weight of 7-(4-amino-methyl-3-methyloxylminopyrrolidin-1-yl)-1-cyclopropyl-6-fluoro- 4-oxo-1,4-dihydro-1,8-naphthyridine-3-carboxylic acid methanesulfonate is 485.5, the moisture content of the hydrate for n equal to 1, 1.5, 2, 2.5, 3, 3.5 or 4 is calculated to be 3.6%, […], 6.9%, 8.5%, 10.0%, 11.5% or 12.9%, respectively. However, the actual moisture content may differ from the calculated moisture content depending on differences in recrystallization conditions, drying conditions, etc.

[2] = system: Staphylococcus epidermidis 887E; assay: In vitro antibacterial activity (MIC, agar medium dilution), Biological Example 4; format: cell-based; details: 18 h, Staphylococcus epidermidis 887E, Table 31, read-out: Minimum Inhibitory Concentration: MIC
[3] = system: Streptococcus faecalis 29212; assay: as above; format: cell-based; details: Enterococcus faecalis, 29212, 18 h, Streptococcus faecalis 29212, Table 31; read-out: Minimum Inhibitory Concentration: MIC
[4] = system: Escherichia coli TEM3 3455E; assay: as above; format: cell-based; details: TEM33455E, 18 h, read-out: Minimum Inhibitory Concentration: MIC, Escherichia coli TEM3 3455E, Table 32, ratio of weight
[5] = system: Pseudomonas aeruginosa 10145; assay: as above; format: cell-based; details: Pseudomonas aeruginosa, 10145, 18 h, Pseudomonas aeruginosa 10145, Table 32, ratio of weight; read-out: Minimum Inhibitory Concentration: MIC
[6] = system: Pseudomonas aeruginosa 6065Y; assay: as above; format: cell-based; details: 18 h, Table 31, read-out: Minimum Inhibitory Concentration: MIC
Experimental: (§1) In order to determine the antibacterial activitiers of the E- and Z-isomner of the compound 180 which were separated in Example 203, and of 7- (4-aminomethyl-3-methyloxylminopyrrolidin-1-yl)-1-cyclopropyl-6-fluoro-4-oxo-1,4-dihydro-1,8-naphthyridine-3-carboxylic acid methanesulfonate prepared in Example 204, in vitro antibacterial activities of them were measured using agar medium dilution method. The results were as described in the following Tables 31 and 32.

Seratis marsecence 1826E = assay: as above; format: cell-based
Experimental: as §1

[7] = Equilibrium moisture content determination of hydrates; format: physicochemical
Experimental: Six saturated aqueous salt solutions were introduced into each desiccator to control the inner relative humidity to a specific value as represented in the following Table 28. Then, equilibrium moisture contents of 3 hydrate and 1.5 hydrate prepared in Examples 205 and 206, respectively, were determined at several relative humidities.
Specifically, 100 mg of the sample was spread on a preweighed Petri dish and the total weight was accurately measured, then three of the sample were placed in each desiccator of Table 28. The desiccators were allowed to stand at normal temperature for 7 days and then the sample was taken to be weighed. After 13 days had passed, one of the three samples inside each desiccator was taken and the moisture content of each was measured by the thermogravimetric analysis described in Test Example 2. Equilibrium moisture content at each relative humidity is represented in FIG. 3 (3 hydrate), and FIG. 4 (1.5 hydrate). […] Both hydrates are stable since they keep a constant equilibrium moisture content regardless of the relative humidity change.

[8] = Chemical stability under heating; details: for thermal stability: hydrate
Experimental: The anhydride and each of the hydrates was introduced into a glass vial and maintained at 70° C.

physchem = details: phosphate buffered solution

In the case of `CON=C1CN(c2nc3c(cc2F)c(=O)c(C(=O)O)cn3C2CC2)CC1CN` (stereo not drawn) [3.5 hydrate, 7-(4-aminomethyl-3-methyloxylminopyrrolidin-1-yl)-1-cyclopropyl-6-fluoro-4-oxo-1,4-dihydro-1,8-naphthyridine-3-carboxylic acid methanesulfonate], the “Moisture Content” value [1] was 11-12%.

Work on `O=C(O)c1cn(C2CC2)c2cc(N3CCNCC3)c(F)cc2c1=O` [Ciprofloxacin, ciprofloxacin, reference compound] yielded an MIC [2] of 0.063 µg/mL (≈ 0.19 µM), an MIC [3] of 1 µg/mL (≈ 3.02 µM) and an MIC [4] of 0.5 µg/mL. It also gave an MIC [5] of 0.5 µg/mL, an MIC [6] of 4 µg/mL (≈ 12.1 µM) and an MIC (Seratis marsecence 1826E; 18 h, Table 31, read-out: Minimum Inhibitory Concentration: MIC) of 0.063 µg/mL (≈ 0.19 µM). The “Minimum Inhibitory Concentration: MIC” value (Seratis marsecence 1826E; Table 32, ratio of weight) was 0.063 µg/mL.

With `CON=C1CN(c2nc3c(cc2F)c(=O)c(C(=O)O)cn3C2CC2)CC1CN` (stereo not drawn) [2.5 hydrate, 7-(4-aminomethyl-3-methyloxylminopyrrolidin-1-yl)-1-cyclopropyl-6-fluoro-4-oxo-1,4-dihydro-1,8-naphthyridine-3-carboxylic acid methanesulfonate] the “Moisture Content” value [1] was 8-9%.

In the case of `CON=C1CN(c2nc3c(cc2F)c(=O)c(C(=O)O)cn3C2CC2)CC1CN` (stereo not drawn) [1.5 hydrate, 7-(4-aminomethyl-3-methyloxyiminopyrrolidin-1-yl)-1-cyclopropyl-6-fluoro-4-oxo-1,4-dihydro-1,8-naphthyridine-3-carboxylic acid methanesulfonate·1.5 hydrate], the “stability of hydrate towards relative humidity change” value [7] was “stable”, the equilibrium moisture content ([7]; relative humidity 23 to 64%) was “around 5%” and the “thermal stability compared with the anhydride” value ([8]; 70° C., Table 29) was “the same degree of thermal stability as the anhydride”. For the same molecule, the thermal stability ([8]; 20160 min) was 95.80%, the thermal stability ([8]; 40320 min) was 96.17% and the thermal stability [8] was 100%. The remaining at 168 h ([8]; thermal stability, 1 week, 70° C.) was 97.2%, the remaining at 504 h ([8]; thermal stability, 3 weeks, 70° C.) was 97.2% and the “Moisture Content” value ([1]; hydrate) was 4-6%.

In the case of `CON=C1CN(c2nc3c(cc2F)c(=O)c(C(=O)O)cn3C2CC2)CC1CN` (stereo not drawn) [2 hydrate, 7-(4-aminomethyl-3-methyloxylminopyrrolidin-1-yl)-1-cyclopropyl-6-fluoro-4-oxo-1,4-dihydro-1,8-naphthyridine-3-carboxylic acid methanesulfonate], the “Moisture Content” value [1] was 6-8%.

With `CON=C1CN(c2nc3c(cc2F)c(=O)c(C(=O)O)cn3C2CC2)CC1CN` (stereo not drawn) [Tartarate] the solubility (physchem; pH 2) was 15.4 mg/mL (≈ 39500 µM) and the solubility (physchem; pH 7) was 6.7 mg/mL (≈ 17200 µM).
